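The compound was tested at five concentrations on cells cultured in 96-well plates, with a 48-hour exposure period. GI50 marks 50% less growth. TGI denotes the concentration required for complete inhibition of growth.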
Assays:
Test in all cases: NCI tumour cell line growth inhibition, 48 h
[1] = tested on: SF-268 CNS
[2] = tested on: K-562 leukemia
[3] = tested on: OVCAR-3 ovarian
[4] = tested on: MALME-3M melanoma
[5] = tested on: SN12C renal
[6] = tested on: SK-MEL-28 melanoma
[7] = tested on: RPMI-8226 leukemia
[8] = tested on: SF-295 CNS
[9] = tested on: A498 renal
[10] = tested on: COLO 205 colon
[11] = tested on: BT-549 breast
[12] = tested on: UACC-62 melanoma
[13] = tested on: HCT-15 colon
[14] = tested on: U251 CNS
[15] = tested on: TK-10 renal
[16] = tested on: SNB-75 CNS
[17] = tested on: 786-0 renal
[18] = tested on: SR leukemia
[19] = tested on: MOLT-4 leukemia
[20] = tested on: M14 melanoma
[21] = tested on: HL-60(TB) leukemia
[22] = tested on: MDA-MB-435
[23] = tested on: DU-145 prostate
[24] = tested on: NCI-H460 lung
[25] = tested on: HCC-2998 colon
[26] = tested on: HOP-62 NSCLC
[27] = tested on: MDA-MB-231 breast
[28] = tested on: HOP-92 NSCLC
[29] = tested on: SNB-19 CNS
[30] = tested on: UO-31 renal
[31] = tested on: CCRF-CEM leukemia
[32] = tested on: T-47D breast
[33] = tested on: NCI-H226 lung
[34] = tested on: RXF 393 renal
[35] = tested on: SK-OV-3 ovarian
[36] = tested on: A549 NSCLC
[37] = tested on: MCF7 breast
[38] = tested on: CAKI-1 renal
[39] = tested on: NCI-H522 lung
[40] = tested on: PC-3 prostate
[41] = tested on: SK-MEL-5 melanoma
[42] = tested on: OVCAR-8 ovarian
[43] = tested on: IGROV1 ovarian
[44] = tested on: LOX IMVI melanoma
[45] = tested on: UACC-257 melanoma
[46] = tested on: KM12 colon
[47] = tested on: OVCAR-5 ovarian
[48] = tested on: OVCAR-4 ovarian
[49] = tested on: NCI-H23 lung
[50] = tested on: HS 578T breast
[51] = tested on: SK-MEL-2 melanoma
[52] = tested on: SW-620 colon
[53] = tested on: HCT-116 colon
[54] = tested on: SF-539 CNS
[55] = tested on: ACHN renal
[56] = tested on: HT29 colon
[57] = tested on: NCI/ADR-RES ovarian

C[CH2][Pb]([CH2]C)([CH2]C)[O]C(=O)COC
GI50 [1]: 1.75 µM | TGI [1]: 7.02 µM | GI50 [2]: 0.499 µM | TGI [2]: 5.77 µM | GI50 [3]: 0.441 µM | TGI [3]: 1.86 µM | GI50 [4]: 0.337 µM | TGI [4]: 3.76 µM | GI50 [5]: 2.05 µM | TGI [5]: 9.19 µM | GI50 [6]: 0.552 µM | TGI [6]: 2.9 µM | GI50 [7]: 0.421 µM | TGI [7]: 3 µM | GI50 [8]: 1.33 µM | TGI [8]: 3.06 µM | GI50 [9]: 0.277 µM | TGI [9]: 2.29 µM | GI50 [10]: 1.35 µM | TGI [10]: 2.96 µM | GI50 [11]: 0.837 µM | TGI [11]: 3.61 µM | GI50 [12]: 0.407 µM | TGI [12]: 3.47 µM | GI50 [13]: 0.737 µM | TGI [13]: 4.33 µM | GI50 [14]: 1.29 µM | TGI [14]: 2.94 µM | GI50 [15]: 0.832 µM | TGI [15]: 3.77 µM | GI50 [16]: 0.304 µM | TGI [16]: 2.85 µM | GI50 [17]: 1.22 µM | TGI [17]: 3.11 µM | GI50 [18]: 0.328 µM | TGI [18]: 5.07 µM | GI50 [19]: 1.75 µM | TGI [19]: 5.97 µM | GI50 [20]: 0.4 µM | TGI [20]: 1.9 µM | GI50 [21]: 0.634 µM | TGI [21]: 2.45 µM | GI50 [22]: 0.182 µM | TGI [22]: 0.409 µM | GI50 [23]: 1.49 µM | TGI [23]: 5.68 µM | GI50 [24]: 0.951 µM | TGI [24]: 10.4 µM | GI50 [25]: 0.907 µM | TGI [25]: 2.39 µM | GI50 [26]: 1.67 µM | TGI [26]: 4.06 µM | GI50 [27]: 1.13 µM | TGI [27]: 3.37 µM | GI50 [28]: 0.292 µM | TGI [28]: 3.28 µM | GI50 [29]: 1.97 µM | TGI [29]: 9.06 µM | GI50 [30]: 0.567 µM | TGI [30]: 2.95 µM | GI50 [31]: 0.534 µM | TGI [31]: 6.84 µM | GI50 [32]: 0.317 µM | TGI [32]: 2.53 µM | GI50 [33]: 1.62 µM | TGI [33]: 6.17 µM | GI50 [34]: 0.232 µM | TGI [34]: 0.783 µM | GI50 [35]: 1.55 µM | TGI [35]: 4.93 µM | GI50 [36]: 1.36 µM | TGI [36]: 6.82 µM | GI50 [37]: 0.469 µM | TGI [37]: 7.53 µM | GI50 [38]: 1.06 µM | TGI [38]: 8.04 µM | GI50 [39]: 0.892 µM | TGI [39]: 2.48 µM | GI50 [40]: 0.795 µM | TGI [40]: 2.51 µM | GI50 [41]: 0.427 µM | TGI [41]: 1.62 µM | GI50 [42]: 1.91 µM | TGI [42]: 9.03 µM | GI50 [43]: 1.15 µM | TGI [43]: 6.33 µM | GI50 [44]: 0.815 µM | TGI [44]: 2.28 µM | GI50 [45]: 0.571 µM | TGI [45]: 3.26 µM | GI50 [46]: 0.817 µM | TGI [46]: 6.1 µM | GI50 [47]: 1.46 µM | TGI [47]: 3.77 µM | GI50 [48]: 0.541 µM | TGI [48]: 2.91 µM | GI50 [49]: 1.01 µM | TGI [49]: 5.07 µM | GI50 [50]: 0.517 µM | TGI [50]: 4.57 µM | GI50 [51]: 0.332 µM | TGI [51]: 0.879 µM | GI50 [52]: 0.333 µM | TGI [52]: 1.33 µM | GI50 [53]: 0.578 µM | TGI [53]: 1.97 µM | GI50 [54]: 1.23 µM | TGI [54]: 3.28 µM | GI50 [55]: 0.836 µM | TGI [55]: 10.2 µM | GI50 [56]: 1.43 µM | TGI [56]: 3.38 µM | GI50 [57]: 0.785 µM | TGI [57]: 12 µM

Cn1c(-c2ccncc2)c(-c2ccc(F)cc2)c2ncccc21
GI50 [1]: > 25 µM | TGI [1]: > 25 µM | GI50 [2]: > 25 µM | TGI [2]: > 25 µM | GI50 [3]: > 25 µM | TGI [3]: > 25 µM | GI50 [4]: > 25 µM | TGI [4]: > 25 µM | GI50 [5]: > 25 µM | TGI [5]: > 25 µM | GI50 [6]: > 25 µM | TGI [6]: > 25 µM | GI50 [7]: > 25 µM | TGI [7]: > 25 µM | GI50 [8]: > 25 µM | TGI [8]: > 25 µM | GI50 [9]: > 14.4 µM | TGI [9]: > 25 µM | GI50 [10]: > 25 µM | TGI [10]: > 25 µM | GI50 [11]: > 25 µM | TGI [11]: > 25 µM | GI50 [12]: > 25 µM | TGI [12]: > 25 µM | GI50 [13]: > 25 µM | TGI [13]: > 25 µM | GI50 [14]: > 25 µM | TGI [14]: > 25 µM | GI50 [15]: 16.4 µM | TGI [15]: > 25 µM | GI50 [16]: > 25 µM | TGI [16]: > 25 µM | GI50 [17]: > 25 µM | TGI [17]: > 25 µM | GI50 [18]: > 25 µM | TGI [18]: > 25 µM | GI50 [19]: > 25 µM | TGI [19]: > 25 µM | GI50 [20]: > 25 µM | TGI [20]: > 25 µM | GI50 [21]: > 25 µM | TGI [21]: > 25 µM | GI50 [22]: > 25 µM | TGI [22]: > 25 µM | GI50 [23]: > 25 µM | TGI [23]: > 25 µM | GI50 [24]: > 25 µM | TGI [24]: > 25 µM | GI50 [25]: > 25 µM | TGI [25]: > 25 µM | GI50 [26]: > 25 µM | TGI [26]: > 25 µM | GI50 [27]: > 25 µM | TGI [27]: > 25 µM | GI50 [28]: 7.39 µM | TGI [28]: > 25 µM | GI50 [29]: > 25 µM | TGI [29]: > 25 µM | GI50 [30]: 10.8 µM | TGI [30]: > 25 µM | GI50 [31]: > 25 µM | TGI [31]: > 25 µM | GI50 [32]: > 25 µM | TGI [32]: > 25 µM | GI50 [33]: > 25 µM | TGI [33]: > 25 µM | GI50 [34]: > 25 µM | TGI [34]: > 25 µM | GI50 [35]: > 25 µM | TGI [35]: > 25 µM | GI50 [36]: > 25 µM | TGI [36]: > 25 µM | GI50 [37]: > 25 µM | TGI [37]: > 25 µM | GI50 [38]: > 25 µM | TGI [38]: > 25 µM | GI50 [39]: > 25 µM | TGI [39]: > 25 µM | GI50 [40]: > 25 µM | TGI [40]: > 25 µM | GI50 [41]: > 25 µM | TGI [41]: > 25 µM | GI50 [42]: > 25 µM | TGI [42]: > 25 µM | GI50 [43]: > 23.1 µM | TGI [43]: > 25 µM | GI50 [44]: > 25 µM | TGI [44]: > 25 µM | GI50 [45]: > 25 µM | TGI [45]: > 25 µM | GI50 [46]: > 25 µM | TGI [46]: > 25 µM | GI50 [47]: > 25 µM | TGI [47]: > 25 µM | GI50 [48]: > 25 µM | TGI [48]: > 25 µM | GI50 [49]: > 25 µM | TGI [49]: > 25 µM | GI50 [50]: > 25 µM | TGI [50]: > 25 µM | GI50 [51]: > 25 µM | TGI [51]: > 25 µM | GI50 [52]: > 25 µM | TGI [52]: > 25 µM | GI50 [53]: > 25 µM | TGI [53]: > 25 µM | GI50 [54]: > 25 µM | TGI [54]: > 25 µM | GI50 [55]: 16.4 µM | TGI [55]: > 25 µM | GI50 [56]: > 25 µM | TGI [56]: > 25 µM | GI50 [57]: > 25 µM | TGI [57]: > 25 µM

— PubChem BioAssay (NCI)
